What all share (assay): NCI tumour cell line growth inhibition, 48 h
Experiment [1] relates to SNB-19.
Experiment [2] concerns M14.
Experiment [3] has as its system HCC 2998.
The subject of experiment [4] is UO-31.
Experiment [5] relates to NCI-H23.
The subject of experiment [6] is OVCAR-3.
Experiment [7] deals with UACC-257.
The test system of experiment [8] is HT-29.
Experiment [9] deals with RPMI-8226.
Experiment [10] has as its system A498.
Experiment [11] relates to A549.
For experiment [12], the system named is CAKI-1.
Experiment [13] relates to U-251.
Experiment [14] deals with TK-10.
For experiment [15], the system named is HOP-92.

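The compound was tested at five concentrations on cells cultured in 96-well plates, with a 48-hour exposure period. Abbreviation: GI50, concentration required for 50% inhibition of growth.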 The source made the active and inactive calls. No stated cut-off is given here; in the data, active = GI50 up to about 1.1 µM and inactive = higher.

Take `c1ccc(C(c2ccccc2)c2cccnc2)cc1`: the GI50 in experiment [1] is > 100 µM (inactive); in [2], > 100 µM (inactive); in [3], > 100 µM (inactive); in [4], 97.9 µM (inactive); in [5], 65.8 µM (inactive); in [6], > 100 µM (inactive). The GI50 in [7] is > 100 µM (inactive); in [8] it was > 100 µM (inactive); in experiment [9], 46.1 µM (inactive); in experiment [10], > 100 µM (inactive); in experiment [11], 88.1 µM (inactive); in [12], > 100 µM (inactive). In addition, the GI50 in [13] and in experiment [14] was > 100 µM (inactive) throughout.
On to `N#Cc1c2nc3ccccc3nc2n2ccc3ccccc3c12`, for which the GI50 in [1] is > 100 µM (inactive); in experiment [15], > 100 µM (inactive); in experiment [2], > 100 µM (inactive); in experiment [3], > 100 µM (inactive); in experiment [4] it was > 100 µM (inactive); in experiment [5], 68.4 µM (inactive). For the same compound, the GI50 in experiment [6], in [7], in experiment [8], in [9], in experiment [11] and in experiment [13] was > 100 µM (inactive) in each case. In [14], the GI50 is > 100 µM (inactive).
As for `COc1ccc(C(=O)O)c(Cc2ccc3ccccc3c2)c1`, the GI50 in experiment [1], in experiment [15], in experiment [2], in experiment [4], in [5] and in experiment [6] was > 100 µM (inactive) each time. Also, the GI50 in experiment [7], in experiment [8], in [9], in experiment [10], in experiment [11] and in experiment [12] was > 100 µM (inactive) each time. Further, the GI50 in experiment [13] and in experiment [14] was > 100 µM (inactive) throughout.
Turning to `CC1(c2cccc3c2C2(O)C=CC4(CCC32)OCCO4)OCCO1` (stereo not drawn), the GI50 in experiment [1], in experiment [2], in [3], in [4], in experiment [5] and in experiment [6] was > 100 µM (inactive) in each case. Besides, the GI50 in experiment [7], in [8], in experiment [9], in experiment [10], in experiment [11] and in experiment [12] was > 100 µM (inactive) each time. The GI50 in [13] and in experiment [14] was > 100 µM (inactive) each time.
Regarding `CCOC(=O)C(=O)C(C#N)c1ccc(Cl)cc1` (stereo not drawn), the GI50 in [1] is > 100 µM (inactive); in experiment [15], > 100 µM (inactive); in experiment [2] it was > 100 µM (inactive); in experiment [4] it was 88.1 µM (inactive); in experiment [5] it was > 100 µM (inactive); in experiment [6], > 100 µM (inactive). Also, the GI50 in experiment [7], in experiment [8], in experiment [9], in experiment [10], in experiment [11] and in experiment [12] was > 100 µM (inactive) in each case. In addition, the GI50 in experiment [13] and in experiment [14] was > 100 µM (inactive) throughout.
For `N#Cc1cccc(/C=N/N/C(N)=N/O)c1`, the GI50 in experiment [1] is > 100 µM (inactive); in experiment [15], 39.4 µM (inactive); in experiment [2], 41.4 µM (inactive); in experiment [4], 49.1 µM (inactive); in [5], 97.9 µM (inactive); in [6], > 100 µM (inactive). Moreover, the GI50 was > 100 µM (inactive) in experiment [7]; 45.5 µM (inactive) in [8]; 33.3 µM (inactive) in experiment [10]; 24.9 µM (inactive) in experiment [11]; 17.1 µM (inactive) in [12]; 59.6 µM (inactive) in [13]. Moreover, the GI50 in experiment [14] was 37.6 µM (inactive).
On to `CC1=C(CO)C(=O)OC(C(C)C2CCC3C4CC5OC56C(O)C(N5CC5)=CC(=O)C6(C)C4CCC23C)C1` (stereo not drawn), for which the GI50 in experiment [1] is 2.04 µM (inactive); in experiment [15], 5.33 µM (inactive); in [2], 12.1 µM (inactive); in [3], 2.93 µM (inactive); in experiment [4], 12.9 µM (inactive); in [5], 2.35 µM (inactive). Besides, the GI50 in experiment [6] is 3.43 µM (inactive); in experiment [7], 11.9 µM (inactive); in experiment [8], 3.94 µM (inactive); in [9] it was 3.35 µM (inactive); in experiment [10], 2.11 µM (inactive); in [11] it was 10.4 µM (inactive). Besides, the GI50 in experiment [13] was 4.22 µM (inactive); in [14], 10.1 µM (inactive).
Turning to `C[Si](C)(C)C(Sc1ccccc1)(Sc1ccccc1)Sc1ccccc1`, the GI50 is > 100 µM (inactive) in experiment [1]; 17.1 µM (inactive) in experiment [15]; 94 µM (inactive) in experiment [3]; > 100 µM (inactive) in [4]; 22.3 µM (inactive) in [5]; 52.5 µM (inactive) in [7]. In addition, the GI50 is 41.7 µM (inactive) in experiment [9]; 76.9 µM (inactive) in experiment [10]; 39.3 µM (inactive) in experiment [11]; > 100 µM (inactive) in experiment [12]; 57.7 µM (inactive) in experiment [13]; > 100 µM (inactive) in experiment [14].
As for `Cc1cccc(NC(=O)c2c(N)[n+]([O-])c3ccccc3[n+]2[O-])c1`, the GI50 is 15.8 µM (inactive) in [1]; 15.2 µM (inactive) in experiment [15]; 12 µM (inactive) in experiment [2]; 18.4 µM (inactive) in experiment [4]; 9.68 µM (inactive) in experiment [5]; 15.6 µM (inactive) in experiment [6]. For the same compound, the GI50 is 11.3 µM (inactive) in experiment [7]; 13.7 µM (inactive) in experiment [8]; 16.1 µM (inactive) in experiment [10]; 16.1 µM (inactive) in experiment [11]; 13.9 µM (inactive) in experiment [12]; 1.78 µM (inactive) in [13].
For the compound `CC(=O)NC1=C(NCc2ccc(Cl)cc2)C(=O)c2ccccc2C1=O`, the GI50 is 22.6 µM (inactive) in [1]; 7.01 µM (inactive) in [2]; 27.5 µM (inactive) in experiment [3]; 5.15 µM (inactive) in experiment [4]; 6.76 µM (inactive) in experiment [5]; 6.4 µM (inactive) in experiment [6]. In addition, the GI50 was 6.17 µM (inactive) in [7]; 17.8 µM (inactive) in experiment [8]; 12.5 µM (inactive) in experiment [11]; 6.7 µM (inactive) in [13]; 8.24 µM (inactive) in experiment [14].
For `CCCCN(CCCC)c1c([N+](=O)[O-])c(=O)nc2ccccn12`, the GI50 in experiment [1] was 72.9 µM (inactive); in [15] it was 61.5 µM (inactive); in experiment [2], 27.9 µM (inactive); in experiment [4], 45.6 µM (inactive); in experiment [5], 30.8 µM (inactive); in experiment [6] it was 45.8 µM (inactive). Further, the GI50 was 38.1 µM (inactive) in experiment [8]; 33.4 µM (inactive) in experiment [9]; 22.3 µM (inactive) in experiment [10]; 33.7 µM (inactive) in experiment [11]; > 10 µM (inactive) in experiment [12]; 38.8 µM (inactive) in experiment [13]. In experiment [14], the GI50 is 46.9 µM (inactive).
As to `N=C(N)NS(=O)(=O)c1ccc(NCCc2c3ccccc3nc3ccccc23)cc1`, the GI50 was > 100 µM (inactive) in experiment [1]; > 100 µM (inactive) in [15]; > 100 µM (inactive) in experiment [2]; > 100 µM (inactive) in experiment [3]; > 100 µM (inactive) in [4]; > 10 µM (inactive) in [5]. The GI50 in [6] is > 100 µM (inactive); in experiment [7] it was 52.5 µM (inactive); in [8] it was 64.4 µM (inactive); in experiment [9], 7.26 µM (inactive); in experiment [11], > 100 µM (inactive); in experiment [12], 87.1 µM (inactive). The GI50 in experiment [13] and in experiment [14] was > 100 µM (inactive) throughout.
`Cc1ccc(-c2cc(-c3ccccc3)c(C#N)c(=O)n2C2OC(CO)C(O)C(O)C2O)cc1` (stereo not drawn): the GI50 in experiment [1], in experiment [15], in experiment [2], in experiment [3], in experiment [4] and in experiment [5] was > 100 µM (inactive) in each case. For the same compound, the GI50 in experiment [6], in experiment [7], in [8], in experiment [9], in experiment [10] and in [11] was > 100 µM (inactive) in each case. Also, the GI50 in experiment [13] and in experiment [14] was > 100 µM (inactive) each time.
Consider `CNC(=S)NC(=S)N(C)C`, for which the GI50 in [1] is > 100 µM (inactive); in [15], > 100 µM (inactive); in experiment [2], > 100 µM (inactive); in experiment [3] it was > 100 µM (inactive); in experiment [4], > 100 µM (inactive); in experiment [5], 0.692 µM (active). For the same compound, the GI50 in experiment [6] was 3.18 µM (inactive); in experiment [7] it was > 100 µM (inactive); in [9], 1.67 µM (inactive); in [10], > 100 µM (inactive); in experiment [11], 7.67 µM (inactive); in experiment [12] it was > 100 µM (inactive). For the same compound, the GI50 in experiment [13] and in experiment [14] was > 100 µM (inactive) throughout.
As to `CCC12CCCN(Cc3ccccc3)C1c1c(n(C)c3ccccc13)C(CO)C2` (stereo not drawn), the GI50 in experiment [1] is 55.5 µM (inactive); in experiment [15], 33.4 µM (inactive); in experiment [3] it was 58.1 µM (inactive); in experiment [5], 52.2 µM (inactive); in experiment [6] it was 36.1 µM (inactive); in experiment [7], 48.6 µM (inactive). Moreover, the GI50 in experiment [8] is 17.9 µM (inactive); in [9] it was 37.2 µM (inactive); in experiment [11], 81.8 µM (inactive); in experiment [12], 92.7 µM (inactive); in experiment [13], 49.3 µM (inactive); in experiment [14], 64.9 µM (inactive).
